This is an account of results in patent US7638631B2, “Methylene dipiperidine derivatives” (Glaxo Group Limited, priority 2004, dated 2009).

In assay [1] the target is T1, histamine H3 receptor (Homo sapiens, UniProt Q9Y5N1).
T1 construct: expressed in transfected cells; host or cells: CHO K1 cells carrying pSwitch, transfected with pGeneH3, mifepristone-induced; clone 3H3; membranes
The assay is described as follows: Histamine H3 functional antagonist assay (method B), [35S]-GTPγS SPA on membranes. Format: biochemical. The following applies: membrane from cultured H3 cells, histamine at EC80, averages of a number of experiments, read-out: functional pKi (fpKi), histamine H3 functional antagonist assay (method B) (converted). The source says: (§1) A membrane preparation containing histamine H3 receptors may be prepared in accordance with the following procedures:
(§2) DNA encoding the human histamine H3 gene (Huvar, A. et al. (1999) Mol. Pharmacol. 55(6), 1101-1107) was cloned into a holding vector, pCDNA3.1 TOPO (InVitrogen) and its cDNA was isolated from this vector by restriction digestion of plasmid DNA with the enzymes BamH1 and Not-1 and ligated into the inducible expression vector pGene (InVitrogen) digested with the same enzymes. The GeneSwitch™ system (a system where in transgene expression is switched off in the absence of an inducer and switched on in the presence of an inducer) was performed as described in U.S. Pat. Nos.: 5,364,791; 5,874,534; and 5,935,934. Ligated DNA was transformed into competent DH5α E. coli host bacterial cells and plated onto Luria Broth (LB) agar containing Zeocin™ (an antibiotic which allows the selection of cells expressing the sh ble gene which is present on pGene and pSwitch) at 50 μg ml^−1. Colonies containing the re-ligated plasmid were identified by restriction analysis. DNA for transfection into mammalian cells was prepared from 250 ml cultures of the host bacterium containing the pGeneH3 plasmid and isolated using a DNA preparation kit (Qiagen Midi-Prep) as per manufacturers guidelines (Qiagen). CHO K1 cells previously transfected with the pSwitch regulatory plasmid (InVitrogen) were seeded at 2×10e6 cells per T75 flask in Complete Medium, containing Hams F12 (GIBCOBRL, Life Technologies) medium supplemented with 10% v/v dialysed foetal bovine serum, L-glutamine, and hygromycin (100 μg ml^−1), 24 hours prior to use. Plasmid DNA was transfected into the cells using Lipofectamine plus according to the manufacturers guidelines (InVitrogen). 48 hours post transfection cells were placed into complete medium supplemented with 500 μg ml^−1 Zeocin™.
10-14 days post selection 10 nM Mifepristone (InVitrogen), was added to the culture medium to induce the expression of the receptor. 18 hours post induction cells were detached from the flask using ethylenediamine tetra-acetic acid (EDTA; 1:5000; InVitrogen), following several washes with phosphate buffered saline pH 7.4 and resuspended in Sorting Medium containing Minimum Essential Medium (MEM), without phenol red, and supplemented with Earles salts and 3% Foetal Clone II (Hyclone). Approximately 1×10e7 cells were examined for receptor expression by staining with a rabbit polyclonal antibody, 4a, raised against the N-terminal domain of the histamine H3 receptor, incubated on ice for 60 minutes, followed by two washes in sorting medium. Receptor bound antibody was detected by incubation of the cells for 60 minutes on ice with a goat anti rabbit antibody, conjugated with Alexa 488 fluorescence marker (Molecular Probes). Following two further washes with Sorting Medium, cells were filtered through a 50 μm Filcon™ (BD Biosciences) and then analysed on a FACS Vantage SE Flow Cytometer fitted with an Automatic Cell Deposition Unit. Control cells were non-induced cells treated in a similar manner. Positively stained cells were sorted as single cells into 96-well plates, containing Complete Medium containing 500 μg ml^−1 Zeocin™ and allowed to expand before reanalysis for receptor expression via antibody and ligand binding studies. One clone, 3H3, was selected for membrane preparation.
All steps of the protocol are carried out at 4° C. and with pre-cooled reagents. The cell pellet is resuspended in 10 volumes of homogenisation buffer (50 mM N-2-hydroxyethylpiperazine-N′-2-ethanesulfonic acid (HEPES), 1 mM ethylenediamine tetra-acetic acid (EDTA), pH 7.4 with KOH, supplemented with 10e-6M leupeptin (acetyl-leucyl-leucyl-arginal; Sigma L2884), 25 μg/ml bacitracin (Sigma B0125), 1 mM phenylmethylsulfonyl fluoride (PMSF) and 2×10e-6M pepstain A (Sigma)). The cells are then homogenised by 2×15 second bursts in a 1 liter glass Waring blender, followed by centrifugation at 500 g for 20 minutes. […]
(GTPγS resists hydrolysis and so accumulates on activated G proteins.)

Assay [2] has as its target T1, histamine H3 receptor. The experiment in a line: Histamine H3 functional antagonist assay (method A), [35S]-GTPγS SPA on membranes. It counts as biochemical. The conditions noted are these: membrane from cultured H3 cells, histamine at EC80, averages of a number of experiments, read-out: functional pKi (fpKi), histamine H3 functional antagonist assay (method A) (converted).
Text: as §1, §2
10-14 days post selection 10 nM Mifepristone (InVitrogen), was added to the culture medium to induce the expression of the receptor. 18 hours post induction cells were detached from the flask using ethylenediamine tetra-acetic acid (EDTA; 1:5000; InVitrogen), following several washes with phosphate buffered saline pH 7.4 and resuspended in Sorting Medium containing Minimum Essential Medium (MEM), without phenol red, and supplemented with Earles salts and 3% Foetal Clone II (Hyclone). […] Receptor bound antibody was detected by incubation of the cells for 60 minutes on ice with a goat anti rabbit antibody, conjugated with Alexa 488 fluorescence marker (Molecular Probes). Following two further washes with Sorting Medium, cells were filtered through a 50 μm Filcon™ (BD Biosciences) and then analysed on a FACS Vantage SE Flow Cytometer fitted with an Automatic Cell Deposition Unit. […]

In another assay the target is T2, human H1 receptor (Homo sapiens, UniProt P35367).
T2 construct: expressed in transfected cells
The assay is described as follows: Histamine H1 functional antagonist assay (FLIPR, Chinese hamster ovary cells). Format: cell-based. The following applies: H1 cell line, FLIPR fluorescence, histamine at EC80; Cheng-Prusoff; averages of a number of experiments; read-out: functional pKi (fpKi), histamine H1 functional antagonist assay (converted). The protocol:
(iii) Generation of Histamine H1 Cell Line
The human H1 receptor was cloned using known procedures described in the literature [Biochem. Biophys. Res. Commun. 1994, 201(2), 894]. Chinese hamster ovary cells stably expressing the human Hi receptor were generated according to known procedures described in the literature [Br. J. Pharmacol. 1996, 117(6), 1071].
(II) Histamine H1 Functional Antagonist Assay
The histamine H1 cell line was seeded into non-coated black-walled clear bottom 384-well tissue culture plates in alpha minimum essential medium (Gibco/Invitrogen, cat no. 22561-021), supplemented with 10% dialysed foetal calf serum (Gibco/Invitrogen cat no. 12480-021) and 2 mM L-glutamine (Gibco/Invitrogen cat no 25030-024) and maintained overnight at 5% CO2, 37° C.
Excess medium was removed from each well to leave 10 μl. 30 μl loading dye (250 μM Brilliant Black, 2 μM Fluo-4 diluted in Tyrodes buffer+probenecid (145 mM NaCl, 2.5 mM KCl, 10 mM HEPES, 10 mM D-glucose, 1.2 mM MgCl2, 1.5 mM CaCl2, 2.5 mM probenecid, pH adjusted to 7.40 with NaOH 1.0 M)) was added to each well and the plates were incubated for 60 minutes at 5% CO2, 37° C.
10 μl of test compound, diluted to the required concentration in Tyrodes buffer+probenecid (or 10 μl Tyrodes buffer+probenecid as a control) was added to each well and the plate incubated for 30 min at 37° C., 5% CO2. The plates were then placed into a FLIPR™ (Molecular Devices, UK) to monitor cell fluorescence (λex=488 nm, λEM=540 nm) in the manner described in Sullivan et al. (In: Lambert DG (ed.), Calcium Signaling Protocols, New Jersey: Humana Press, 1999, 125-136) before and after the addition of 10 μl histamine at a concentration that results in the final assay concentration of histamine being EC80.
Functional antagonism is indicated by a suppression of histamine induced increase in fluorescence, as measured by the FLIPR™ system (Molecular Devices). By means of concentration effect curves, functional affinities are determined using standard pharmacological mathematical analysis.

T1 sequence (Q9Y5N1 whole entry): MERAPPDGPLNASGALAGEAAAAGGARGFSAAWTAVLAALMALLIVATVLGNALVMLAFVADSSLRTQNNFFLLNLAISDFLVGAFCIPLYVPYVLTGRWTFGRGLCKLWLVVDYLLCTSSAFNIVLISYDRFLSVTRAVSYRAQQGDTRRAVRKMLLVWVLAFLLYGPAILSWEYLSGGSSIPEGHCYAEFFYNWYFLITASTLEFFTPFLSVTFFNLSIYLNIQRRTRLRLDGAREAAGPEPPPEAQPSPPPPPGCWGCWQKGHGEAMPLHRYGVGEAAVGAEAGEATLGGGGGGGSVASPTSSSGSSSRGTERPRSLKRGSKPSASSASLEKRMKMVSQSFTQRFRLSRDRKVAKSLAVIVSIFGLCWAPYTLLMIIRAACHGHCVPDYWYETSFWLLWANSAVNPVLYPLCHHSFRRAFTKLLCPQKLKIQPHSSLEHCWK
T2 sequence (P35367 whole entry): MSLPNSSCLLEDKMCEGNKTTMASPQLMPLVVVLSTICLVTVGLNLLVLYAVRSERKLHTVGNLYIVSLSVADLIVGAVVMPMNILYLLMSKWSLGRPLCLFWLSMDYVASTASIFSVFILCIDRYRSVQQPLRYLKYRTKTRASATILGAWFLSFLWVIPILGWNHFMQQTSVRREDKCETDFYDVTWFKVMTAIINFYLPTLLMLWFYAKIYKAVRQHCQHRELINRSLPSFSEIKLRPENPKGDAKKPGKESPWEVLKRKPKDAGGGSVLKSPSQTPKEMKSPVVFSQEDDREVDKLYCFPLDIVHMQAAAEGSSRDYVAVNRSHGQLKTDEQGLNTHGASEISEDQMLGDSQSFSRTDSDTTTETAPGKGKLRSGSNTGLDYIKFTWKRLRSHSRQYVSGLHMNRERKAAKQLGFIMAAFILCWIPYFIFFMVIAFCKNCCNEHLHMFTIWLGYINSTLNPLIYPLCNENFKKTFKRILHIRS

As for `Cc1noc(-c2ccc(N3CCC(CC4CCN(C5CCC5)CC4)CC3)cn2)n1` [Example E17, 5-{4-[(1-cyclobutyl-4-piperidinyl)methyl]-1-piperidinyl}-2-(3-methyl-1,2,4-oxadiazol-5-yl)pyridine], the Ki at histamine H3 receptor [1] was at most 1 nM. Same read-out and setting: the same measure for `CC(=O)c1ccc(N2CCC(CC3CCN(C(C)C)CC3)CC2)cc1` [Example E26]: at most 1 nM. Take `CC(=O)c1ccc(N2CCC(CC3CCN(C4CCC4)CC3)CC2)nc1` [Example E29]: the Ki on histamine H3 receptor [1] is at most 1 nM. Same read-out and setting: the value for `CNC(=O)c1cnc(N2CCC(CC3CCN(C4CCC4)CC3)CC2)cn1` [Example E8] was at most 1 nM; that for `CCN1CCC(CC2CCN(c3ccc(-c4nc(C)no4)cc3)CC2)CC1` [Example E18] was at most 0.316 nM; that for `CC(=O)c1ccc(N2CCC(CC3CCN(C4CCC4)CC3)CC2)cc1` [Example E25, 1-(4-{4-[(1-Cyclobutyl-4-piperidinyl)methyl]-1-piperidinyl}phenyl)ethanone] was at most 1 nM.

As to `FC(F)(F)c1ccc(N2CCC(CC3CCN(C4CCC4)CC3)CC2)nn1` [Example E34], the Ki at histamine H3 receptor [1] is at most 1 nM. On to `CC(=O)c1ccc(N2CCC(CC3CCN(C4CCC4)CC3)CC2)cn1` [Example E24, 1-(5-{4-[(1-Cyclobutyl-4-piperidinyl)methyl]-1-piperidinyl}-2-pyridinyl)ethanone], for which, at histamine H3 receptor [1], the Ki was at most 0.316 nM. Take `Cc1noc(-c2ccc(N3CCC(CC4CCN(C(C)C)CC4)CC3)cc2)n1` [Example E13, 1-(1-Methylethyl)-4-({1-[4-(3-methyl-1,2,4-oxadiazol-5-yl)phenyl]-4-piperidinyl}methyl)piperidine]: the Ki at histamine H3 receptor [2] is at most 0.316 nM. On to `CNC(=O)c1ccc(N2CCC(CC3CCN(C4CCC4)CC3)CC2)cn1` [Example E11, 5-{4-[(1-Cyclobutyl-4-piperidinyl)methyl]-1-piperidinyl}-N-methyl-2-pyridinecarboxamide], for which the Ki on histamine H3 receptor [1] was at most 1 nM; at human H1 receptor, above 1000 nM. As for `CC(C)N1CCC(CC2CCN(c3ccc(C#N)nc3)CC2)CC1` [Example E21, 5-(4-{[1-(1-Methylethyl)-4-piperidinyl]methyl}-1-piperidinyl)-2-pyridinecarbonitrile], on histamine H3 receptor [1], the Ki was at most 1 nM.

On to `N#Cc1ccc(N2CCC(CC3CCN(C4CCC4)CC3)CC2)cn1` [Example E22, 5-{4-[(1-Cyclobutyl-4-piperidinyl)methyl]-1-piperidinyl}-2-pyridinecarbonitrile], for which the Ki on histamine H3 receptor [1] is at most 0.316 nM. Regarding `CNC(=O)c1ccc(N2CCC(CC3CCN(C(C)C)CC3)CC2)cn1` [Example E12, N-Methyl-5-(4-{[1-(1-methylethyl)-4-piperidinyl]methyl}-1-piperidinyl)-2-pyridinecarboxamide], the Ki on histamine H3 receptor [2] and on histamine H3 receptor [1] was at most 1 nM each time. As for `CC(C)N1CCC(CC2CCN(c3cnc(C(F)(F)F)nc3)CC2)CC1` [Example E36, 5-(4-{[1-(1-Methylethyl)-4-piperidinyl]methyl}-1-piperidinyl)-2-(trifluoromethyl)pyrimidine], the Ki on histamine H3 receptor [1] was at most 10 nM; at human H1 receptor, above 1000 nM. As to `CC(C)NC(=O)c1cnc(N2CCC(CC3CCN(C4CCC4)CC3)CC2)cn1` [Example E6, 5-{4-[(1-Cyclobutyl-4-piperidinyl)methyl]-1-piperidinyl}-N-(1-methylethyl)-2-pyrazinecarboxamide], the Ki was at most 1 nM at histamine H3 receptor [2] and above 1000 nM on human H1 receptor. As to `CCN1CCC(CC2CCN(c3ccc(C(C)=O)cc3)CC2)CC1` [Example E27], at histamine H3 receptor [1], the Ki is at most 1 nM.

For `Cc1noc(-c2ccc(N3CCC(CC4CCN(C(C)C)CC4)CC3)c(F)c2)n1` [Example E14, 1-[2-Fluoro-4-(3-methyl-1,2,4-oxadiazol-5-yl)phenyl]-4-{[1-(1-methylethyl)-4-piperidinyl]methyl}piperidine], on histamine H3 receptor [1], the Ki is at most 1 nM. For the compound `Cc1noc(-c2ccc(N3CCC(CC4CCN(C(C)C)CC4)CC3)cn2)n1` [Example E15, 5-(4-{[1-(1-Methylethyl)-4-piperidinyl]methyl}-1-piperidinyl)-2-(3-methyl-1,2,4-oxadiazol-5-yl)pyridine], the Ki on histamine H3 receptor [1] was at most 1 nM.

For `Cc1noc(-c2ccc(N3CCC(CC4CCN(C(C)C)CC4)CC3)cc2F)n1` [Example E16, 1-[3-fluoro-4-(3-methyl-1,2,4-oxadiazol-5-yl)phenyl]-4-{[1-(1-methylethyl)-4-piperidinyl]methyl}piperidine], the Ki at histamine H3 receptor [1] was at most 0.316 nM. As for `O=C(c1ccc(N2CCC(CC3CCN(C4CCC4)CC3)CC2)cc1)C(F)(F)F` [Example E31], on histamine H3 receptor [1], the Ki was at most 1 nM. On to `CCNC(=O)c1cnc(N2CCC(CC3CCN(C4CCC4)CC3)CC2)cn1` [Example E9, 5-{4-[(1-cyclobutyl-4-piperidinyl)methyl]-1-piperidinyl}-N-ethyl-2-pyrazinecarboxamide], for which the Ki is at most 1 nM on histamine H3 receptor [1] and above 1000 nM at human H1 receptor. Take `CC(=O)c1ccc(N2CCC(CC3CCN(C(C)C)CC3)CC2)cn1` [Example E23, 1-{[5-(4-[1-(1-Methylethyl)-4-piperidinyl]methyl}-1-piperidinyl)-2-pyridinyl]ethanone]: the Ki at histamine H3 receptor [1] is at most 1 nM.

Consider `CC(C)NC(=O)c1cnc(N2CCC(CC3CCN(C(C)C)CC3)CC2)cn1` [Example E7], for which the Ki on histamine H3 receptor [2] was at most 10 nM.
